Key:
[1] = Body weight, body surface area and body mass index during treatment; assay type: in vivo, mouse; details: Ts2Cje mice; sitagliptin 5 mM intranasal, 21 days
Method: Finally, animals were sacrificed using cervical dislocation.
Furthermore, mice were measured at the beginning and at the end of the treatment to evaluate the length in centimeters (cm). For calculating the body mass surface, the DuBois equation was used: body surface area (m^2)=0.007184×weight ([…])×height ([…]). The body mass index was calculated as the ratio between weight and BSA (gr/m^2). At the end of the treatment, the glucose tolerance test (GTT) was carried out on the four experimental groups. After a fasting period of 6 hours, the animals' basal blood glucose was assessed with a small blood sample from the tail (T0). Subsequently, the same animals were treated with a glucose solution (10%, intraperitoneal injection) and blood glucose was measured with a glucometer (lineD ORO, Bioseven) after 30-60-90-120 minutes.

DYRK1A protein = DYRK1A protein levels in primary hippocampal neurons isolated from Ts2Cje mice; assay type: cell-based, mouse; details: 1, 5, 10 μM for 24 hours, vs untreated Ts2Cje
Method: For Western blots, 20 μg of proteins from the hippocampus of mice belonging to the four experimental groups were separated by 4-15% SDS-PAGE Criterion™ TGX (Tris-Glyicine eXtended) Stain-Free™ (Bio-rad, Hercules, CAUSE). This type of gel allows a rapid acquisition of the protein run in the ultraviolet (UV) by Chemidoc™ MP imaging systems (Bio-rad, Hercules, CA, USA). Therefore, the gel, once the image has been acquired, represents the total of the loaded proteins (Total Load), which will then be used to normalize the specific proteins to be examined. After electrophoresis and gel imaging, proteins are transferred via the semi-dry TransBlot Turbo apparatus (Bio-Rad Laboratories) onto nitrocellulose membranes (Bio-Rad, Hercules, CA, USA). Nitrocellulose membranes are blocked with 3% bovine serum albumin (BSA) in a solution of Tween 20-TBS and incubated overnight at 4° C. using specific primary antibodies: p(T216)-GSK3B (1:1000, Santa Cruz, #sc-135653), p(S9)-GSK3β (1:1000, Cell Signaling, #5558S), GSK3β (1:1000 Abcam, #93926) and DYRK1A (1:1000, Cell Signaling, #8765S), MAPK44/42 (1:1000, Cell Signaling, #9102), p(Thr202/Tyr204)-MAPK44/42 (1 1000, Cell Signaling, #9101), Akt (1:2000, Bio-Rad, # vma00253K), p(S473) Akt (1:1000, Cell Signaling, #4060S). After three washes with a T-TBS buffer solution, membranes were incubated for 1 hour at room temperature with the secondary antibodies. Secondary antibodies with peroxidase activity are anti-mouse or anti-rabbit (1:5000, Bio-rad, Hercules, CA, USA). Membranes were developed using Clarity Enhanced Chemiluminescence (ECL), a chemiluminescent substrate (Bio-rad, Hercules, CA, USA) and acquired with Chemidoc Mp (Bio-rad, Hercules, CA, USA). Finally, the results obtained were analyzed using the ImageLab program (Bio-rad, Hercules, CA, USA).
In order to isolate primary hippocampal neurons, hippocampi from Ts and euploid mice were mechanically dissociated in PBS (with Ca^2+ and Mg^2−) and centrifuged (3 minutes, 1100 rpm, 25° C.). […]

β-amyloid peptide 1-42 = assay: ELISA Aβ 1-42 in hippocampus; assay type: in vivo, mouse
Method: The 3x-Tg mouse, an animal model commonly used for the study of Alzheimer's disease (n=2/group), was used as a positive control for the production of β-amyloid 1-42. Briefly, ˜10 mg of hippocampus was homogenized in DEA buffer (10 μL/mg tissue; 0.2% diethanolamine and 50 mM NaCl) to which the protease inhibitor cocktail (1:100; Millipore) was added. The sample was centrifuged at 15,000 rpm for 1 hour 30 min at 4° C., the supernatant was stored for measuring ß-amyloid 1-42 following the instructions given by the kit manufacturer. The calculations for the quantization of β-amyloid were carried out using GraphPad Prism 8.0 software (GraphPad, La Jolla, CA, USA).

Compound: N[C@@H](CC(=O)N1CCn2c(nnc2C(F)(F)F)C1)Cc1cc(F)c(F)cc1F [sitagliptin, (R)-4-oxo-4-[3-(trifluoromethyl)-5,6-dihydro[1,2,4]triazole[4,3-a]pyrazin-7(8H)-yl]-1-(2,4,5-trifluorophenyl)butan-2-amine]
- phenotypic or morphometric changes (weight, BSA, BMI) [1]: no phenotypic or morphometric changes
- levels of the DYRK1A protein in Ts2Cje neurons (DYRK1A protein): significant reduction
- Ab (beta-amyloid 1-42) levels (β-amyloid peptide 1-42): reduction
